Results published in patent US5486528A, “Basic ethers and process for the preparation thereof” (Egis Gyogyszergyar Rt., priority 1993, dated 1996).

Legend:
[1] = Acute toxicity on mice (Litchfield and Wilcoxon); conditions: mouse, in vivo, ip
H^+ /K^+ -ATP-ase = biological target: T1, H^+ /K^+ -ATP-ase (Sus scrofa, UniProt P19156); assay: H+/K+-ATP-ase inhibition on partially purified pig's microsome specimen; type: biochemical
T1 construct: on partially purified pig's microsome specimen; from tissue; host or cells: pig stomach, partially purified microsomes
Experimental: 1. H^+ /K^+ -ATP-ase inhibition on pig's stomach
The test was carried out according to the method of Rabon and Sachs [E. C. Rabon et al.: Preparation of gastric H^+ K^+ -ATP-ase, Methods in Enzymology, 157, 649-651 (1988)]. The activity of the prepared enzyme was measured both in the presence as in the absence of K^+ ions. The difference in the libaration of phosphorus representing the activity of the enzyme was measured.

gastric-acid secretion = assay: Gastric-acid-secretion test (Shay); type: in vivo, rat; conditions: po; rat, p.o., 4 hours after ligature; read-out: Acid-secretion inhibition, ED50
Experimental: 2. […] The liberated gastric-acid content was determined by titration 4 hours after the ligature of the duodenum.

[2] = test system: erosion of the stomach wall; assay: Cytoprotective effect, ethanol erosion (Robert); type: in vivo; conditions: rat; for ED50: po, 1 cm^3 abs. ethanol; for Ratio of acid-secretion inhibition and erosion inhibition: ratio of ED50 values, p.o.
Experimental: 3. The cytoprotective effect was determined according to the method of Robert [Robert, A.: Cytoprotection by prostaglandins. […] Rats weighing 200 to 250 g were used as test animals. 1 cm^3 of abs. ethanol was introduced to the stomach to produce an erosion of the stomach wall. The length and frequency of the lesions (erosion index and frequency) were measured and the percentage inhibition of lesion formation compared with vehicle-treated animals was calculated.

[3] = Acute toxicity on mice (Litchfield and Wilcoxon); conditions: mouse, in vivo, po
Experimental: The test was carried out according to the method of Litchfield and Wilcoxon [Litchfield, J. T. and Wilcoxon, F. W.: J. Pharmacol. Exp. Ther., 96, 99 (1949)] by using white mice belonging to the CFLP strain and weighing 10 to 22 g, 10 animals per dose. The test compounds were administered orally in a volume of 20 cm^3 /kg.

mice = assay: Effect on the spontaneous motor activity (Borsy), sedative effect; type: in vivo, mouse; conditions: Mus musculus, po, 0.5 h; mice, orally, 30 minutes; read-out: ID50, spontaneous motor activity
Experimental: 2.1. Effect on the spontaneous motor activity
The test was carried out according to the method of Borsy et al. Groups consisting of 3 mice each were treated orally with different doses of the compounds to be tested. Then the test animals were placed into a 10-channel Dews system equipment. In this equipment the number of interruptions of infrared beam within 30 minutes was counted. […] Int. Pharmacodyn. 124, 1 (1960)].

Male Wistar rats [4] = assay: Conditioned avoidance response inhibition, antipsychotic effect; type: in vivo, rat (Wistar); conditions: rat; for Inhibition of the conditioned reflex (%): 30 mg/kg p.o., ++ = p < 0.05
Experimental: Conditioned avoidance response inhibition
The antipsychotic (neuroleptic) effect was measured by the inhibition of the learned conditioned avoidance reflex. The male Wistar rats, used for the study, were of 120-150 g body weight at the commencement of learning. A shuttle box was used as experimental device; it consists of two parts, 24×24.5×23 cm each, separated by a wall with a 6×9 cm gate. In response to a sutiable warning stimulus, in order to avoid the punishing (unconditioned) stimulus, animals within the box passed through the gate from one part to the other. The warning, i.e. conditioned stimulus (CS), a white light (1 Hz) blinking for 15 seconds, was applied at the place of the actual animal existence. The unconditioned stimulus (US), in form of 0.6 mA intensity electric shock, was randomly applied to the paw during the last 5 seconds of the conditioned stimulus. The animal's movement during the CS and US from one part of the box to the other, was defined as avoidance and escape responses, respectively. Both responses ceased the actual stimulus and stopped the trial. The time elapsed until the next trial (intertrial interval, ITI) was 15 seconds. While one experiment was carried out daily, an experiment consisted of 80 trials. Learning efficiency was expressed as percentage of the successful to the total avoidances. Effect of the neuroleptic drugs was examined in animals with stabilized conditioned reflexes and with at least 75% learning efficiency. Dosing was carried out once a week, one hour before the measurement in the shuttle box. To calculate the neuroleptic effect (50% inhibiting dose, ID50) , results obtained after the treatment were compared to those obtained on the previous day (controls).

rat's parietal cell = assay: 14C-aminopyrine accumulation by parietal cells; type: cell-based, rat (Wistar); conditions: stimulated rat parietal cells; read-out: ED50, inhibition of aminopyrine accumulation
Experimental: 4. Measurement of ^14 C-aminopyrine accumulation by parietal cells
Gastric mucosal cells were prepared from rat stomach. Wistar rats (130-160 g) were killed by decapitation, the stomachs were rapidly excised and their contents were washed out with saline. The stomachs were then everted and filled with 2.5 mg/ml of pronase containing buffer. These sacs were incubated for 60 minutes at 37° C. in carbogen gassed medium. This incubation was followed by gentle stirring at room temperature for 45 minutes by a magnetic stirrer in order to disperse the cells from the mucosa of the everted stomachs digested only from the serosal side. The viability of the cells was determined by trypan-blue exclusion test. The percentage of the parietal cells was determined on the basis of their morphological characteristics.
Acid production of the cells prepared in this way could be induced by cyclic AMP, histamine (in the presence of 3-isobutyl-1-methylxanthine) or carbachol. The acid production was assessed by measuring the accumulation of ^14 C-aminopyrine. The undissociated weak base can penetrate into the acid-containing compartments of the cells. […] Thus, the distribution of ^14 C-aminopyrine between the extracellular and intracellular spaces is an indirect quantitative index for the cellular acid production [W. Schepp, J. Schmidtler, C. […]

Male Wistar rats [5] = assay: Vogel test (drinking conflict test), anxiolytic effect; type: in vivo, rat (Wistar); conditions: for minimal effective dose: ip, 0.5 h, rat, intraperitoneally, half an hour before testing, read-out: MED (minimum effective dose), Vogel test; for anxiolytic activity (in words): Vogel test, compared with Meprobamate or within the group
Experimental: 1.1. Vogel test (drinking conflict test)
The anxiolytic effect was tested by using the method of Vogel et al. Male Wistar rats of 160 to 180 g body weight were kept free of food and drinking water for 24 and 48 hours, respectively. Test and carrier substances were administered intraperitoneally half an hour before testing. Animals within the experimental chamber were provided with drinking water through an inserted tube. After the animals' each twenty lapping for water the device emitted a 2 mA intensity electric shock through the drinking tube. During 5 minutes the shocks tolerated by the animals in order to quench their thirst were counted. The effect of treatment was expressed as the % increase of the tolerated shocks. The minimum effective dose (MED) was determined for each test compound [Volge, J. R., Beer, B., Clody, D. E.: Psychopharmacologia (Berl.) 21, 1 (1971)].

[6] = test system: Male rats (Sprague Dawley); assay: Elevated plus maze test on rat, anxiolytic effect; type: in vivo, rat (Sprague Dawley); conditions: po, 1 h, p.o., pretreatment 60 minutes, read-out: MED (minimum effective dose), elevated plus maze
Experimental: 1.2. Elevated plus maze test on rat
The test was carried out with the aid of a wooden plus-shaped maze elevated to a height of 50 cm. Two arms--opposite to one another--were enclosed up to a height of 40 cm along their longer sides and at the end. The other two arms were without walls (open arms). The central 15×15 cm part was open. Male rats belonging to the Sprague Dawley strain and weighing 220 to 260 g were used as test animals. After pretreatment lasting 60 minutes the animals were placed into the central part of the maze. During the 5 minutes observation period the following parameters were recorded: […]
time spent on the open arms time spent on the closed arms number of open arm entries number of closed arm entries
The drug effect was expressed as percent increase of the time spent on the open arms and number of open arm entries. The minimum effective dose which caused a significant increase of the time spent on the open arms was calculated for every substance [Pelow, S., Chopin, P., File, S. E., Briley, M.: J. Neurosci. Methods 14, 149-167 (1985)].

T1 sequence (P19156 2-1034 limits assumed): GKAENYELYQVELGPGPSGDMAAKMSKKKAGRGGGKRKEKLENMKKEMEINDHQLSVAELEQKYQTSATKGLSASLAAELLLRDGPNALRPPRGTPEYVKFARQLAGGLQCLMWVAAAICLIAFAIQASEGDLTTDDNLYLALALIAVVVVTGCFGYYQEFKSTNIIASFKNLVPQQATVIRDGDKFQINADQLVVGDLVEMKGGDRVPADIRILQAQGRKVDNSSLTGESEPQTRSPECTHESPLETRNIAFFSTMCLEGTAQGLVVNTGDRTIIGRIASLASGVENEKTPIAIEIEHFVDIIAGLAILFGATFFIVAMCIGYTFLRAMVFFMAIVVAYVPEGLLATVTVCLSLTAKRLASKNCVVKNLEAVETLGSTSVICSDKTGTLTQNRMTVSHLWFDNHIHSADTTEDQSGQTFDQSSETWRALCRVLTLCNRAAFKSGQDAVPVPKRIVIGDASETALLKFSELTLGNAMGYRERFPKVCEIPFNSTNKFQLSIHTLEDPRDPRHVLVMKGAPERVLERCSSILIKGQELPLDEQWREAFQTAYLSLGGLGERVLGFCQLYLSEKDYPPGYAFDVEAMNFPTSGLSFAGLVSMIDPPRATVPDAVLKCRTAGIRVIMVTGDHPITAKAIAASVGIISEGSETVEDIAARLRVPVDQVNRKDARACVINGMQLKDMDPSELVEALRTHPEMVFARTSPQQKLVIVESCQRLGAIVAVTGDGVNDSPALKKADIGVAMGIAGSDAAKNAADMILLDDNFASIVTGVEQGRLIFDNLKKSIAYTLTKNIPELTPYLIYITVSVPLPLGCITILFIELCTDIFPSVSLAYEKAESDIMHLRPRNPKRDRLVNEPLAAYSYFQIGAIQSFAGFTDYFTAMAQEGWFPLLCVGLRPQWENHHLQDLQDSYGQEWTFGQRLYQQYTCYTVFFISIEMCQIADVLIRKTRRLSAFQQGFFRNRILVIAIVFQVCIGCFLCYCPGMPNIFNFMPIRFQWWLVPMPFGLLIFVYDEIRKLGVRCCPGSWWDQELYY
T1 sequence (P18434 whole entry partner): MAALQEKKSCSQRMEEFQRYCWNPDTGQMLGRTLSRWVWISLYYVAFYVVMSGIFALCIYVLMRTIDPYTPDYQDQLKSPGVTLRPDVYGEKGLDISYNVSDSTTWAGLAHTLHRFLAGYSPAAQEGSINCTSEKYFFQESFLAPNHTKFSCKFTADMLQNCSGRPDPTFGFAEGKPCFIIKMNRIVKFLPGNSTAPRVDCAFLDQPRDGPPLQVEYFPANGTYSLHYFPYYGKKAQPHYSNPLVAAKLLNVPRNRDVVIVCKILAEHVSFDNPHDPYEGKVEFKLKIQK

Row | Compound | LD50 at 336 h [1] | IC50 (H^+ /K^+ -ATP-ase) | ED50 (gastric-acid secretion) | ED50 [2] | Ratio of acid-secretion inhibition and erosion inhibition [2] | LD50 at 336 h [3] | ED50 (mice) | Inhibition of the conditioned reflex (%) (Male Wistar rats [4]) | IC50 (rat's parietal cell) | minimal effective dose (Male Wistar rats [5]) | minimal effective dose [6] | anxiolytic activity (in words) (Male Wistar rats [5]) | antipsychotic / conditioned-reflex-inhibiting activity (in words) (Male Wistar rats [4]; in vivo)
1 | CC(C)CCC(/C=C/c1ccc(Cl)cc1)=N\OCC(O)CN1CCCCC1 (racemic) [Example 37, (R,S)-1-(4-Chlorophenyl)-6-methyl-3-(E)-[2-hydroxy-3-(1-piperidinyl)-propoxyimino]-1-(E)-heptene] | 100 to 300 mg/kg | 21 µM | 30 to 100 mg/kg | 3 to 10 mg/kg | > 10 | > 1000 mg/kg | – | – | – | – | – | – | –
2 | CCCCCCC(/C=C/c1ccc(Cl)cc1)=N\OCCN1CCCCC1 [Example 3, 1-(4-Chlorophenyl)-3-(E)-[2-(N-piperidinyl)-ethoxyimino]-1-(E)-nonene] | 100 to 300 mg/kg | 10 µM | 50 to 150 mg/kg | 2.5 mg/kg | > 20 | 500 to 1000 mg/kg | – | – | – | – | – | – | –
3 | CC(C)CCC(/C=C/c1ccc(Cl)cc1)=N\OCCCN1CCCCC1 [Example 9, 1-(4-Chlorophenyl)-6-methyl-3-(E)-[3-(N-piperidinyl)-propoxyimino]-1-(E)-heptene] | 160 mg/kg | 12 µM | 107 mg/kg | 5.9 mg/kg | 18.1 | > 1000 mg/kg | > 100 mg/kg | 16% | 0.05 µM | > 30 mg/kg | – | – | –
4 | CC(C)CC(/C=C/c1ccccc1)=N\OCCN1CCCCC1 [Example 10, 1-Phenyl-5-methyl-3-(E)-[2-(N-piperidinyl)-ethoxyimino]-1-(E)-hexene] | – | – | – | – | – | – | > 100 mg/kg | 13% | – | 0.1 mg/kg | 10 mg/kg | the most active members in the structural group | –
5 | CC(C)CC(/C=C/c1ccccc1)=N\OCCN(C)C [Example 17, 1-Phenyl-5-methyl-3-(E)-[2-(dimethylamino)-ethoxyimino]-1-(E)-hexene] | 100 to 300 mg/kg | > 30 µM | 166 mg/kg | 2.7 mg/kg | 61.4 | > 1000 mg/kg | > 100 mg/kg | 40% | – | 30 mg/kg | – | – | slight conditioned-reflex-inhibiting activity
6 | CCCC(/C=C/c1ccccc1)=N\OCCCN(C)C [Example 21, 1-Phenyl-3-(E)-[3-(dimethylamino)-propoxyimino]-1-(E)-hexene] | – | – | – | – | – | – | > 100 mg/kg | 7% | – | 0.03 mg/kg | 1 mg/kg | the most active members in the structural group | –
7 | CC(C)CCC(/C=C/c1ccc(F)cc1)=N\OCCCN1CCCCC1 [Example 38, 1-(4-Fluorophenyl)-6-methyl-3-(E)-[3-(N-piperidinyl)-propoximino]-1-(E)-heptene] | 100 to 300 mg/kg | 17 µM | 37.7 mg/kg | 1.3 mg/kg | 29.0 | 500 to 1000 mg/kg | – | – | – | – | – | – | –
8 | CC(C)CCC(/C=C/c1ccc(Cl)cc1)=N/OCCC1CCCN1C (centres unmarked) [Example 40, 1-(4-Chlorophenyl)-6-methyl-3-(Z)-[2-(2-N-methylpyrrolidinyl)-ethoxyimino]-1-(E)-heptene] | 100 to 300 mg/kg | 10 µM | < 100 mg/kg | 0.9 mg/kg | < 100 | 1000 mg/kg | – | – | – | – | – | – | –
9 | CC(C)CCC(/C=C/c1ccc(Cl)cc1)=N\OCCCN1CCCC1 [Example 41, 1-(4-Chlorophenyl)-6-methyl-3-(E)-[3-(N-pyrrolidinyl)-propoxyimino]-1-(E)-heptene] | 30 to 100 mg/kg | 9 µM | < 100 mg/kg | 2 mg/kg | < 50 | > 1000 mg/kg | – | – | – | – | – | – | –
10 | CC(C)CCC(/C=C/c1ccc(Br)cc1)=N\OCCCN1CCCCC1 [Example 42, 1-(4-Bromophenyl)-6-methyl-3-(E)-[(3-N-piperidinyl)-propoxyimino]-1-(E)-heptene] | 100 to 300 mg/kg | 7 µM | – | – | – | > 1000 mg/kg | – | – | – | – | – | – | –
11 | CCCC(C)(COC(N)=O)COC(N)=O [Meprobamate, reference compound] | – | – | – | – | – | – | – | – | – | 25 mg/kg | > 10 mg/kg | – | –
